Calls of active or inactive are those of the source. The calls are words filed in the database; no cut-off is given here.
Experiments:
Homo sapiens [1] = organism: Homo sapiens; test: Disruption of microtubule structure in human SKOV3 cells assessed as decrease in density at 50 nM after 24 hrs by DAPI staining based immunofluorescence assay; assay type: cell-based
HeLa [2] = test: Induction of apoptosis in human HeLa cells assessed as late apoptotic cells at 100 nM after 48 hrs by Annexin V-FITC/propidium iodide staining based flow cytometry (reference value: 2%); assay type: functional
HeLa [3] = test: Cell cycle arrest in human HeLa cells assessed as accumulation at G2/M-phase at 50 nM after 24 hrs by propidium iodide staining based flow cytometry; assay type: functional
HeLa [4] = test: Induction of apoptosis in human HeLa cells assessed as live cells at 100 nM after 48 hrs by Annexin V-FITC/propidium iodide staining based flow cytometry (reference value: 96.5%); assay type: functional
HeLa [5] = test: Induction of apoptosis in human HeLa cells assessed as early apoptotic cells at 100 nM after 48 hrs by Annexin V-FITC/propidium iodide staining based flow cytometry (reference value: 0.7%); assay type: functional
HeLa [6] = test: Inhibition of alpha-tubulin polymerization in human HeLa cells assessed as increase in ratio of supernatant faction to pellet fraction at 500 nM after 6 hrs by Western blot analysis; assay type: cell-based
HeLa [7] = test: Induction of apoptosis in human HeLa cells assessed as necrotic cells at 100 nM after 48 hrs by Annexin V-FITC/propidium iodide staining based flow cytometry (reference value: 0.9%); assay type: functional
A2780 [8] = test: Antitumor activity against human A2780 cells xenografted in Balb/c nude mouse assessed as tumor volume inhibition at 7.5 mg/kg, ip once in every 2 days measured up to 14 days relative to control; assay type: functional
[9] = Acute toxicity in ICR mouse assessed as survival rate at 70 mg/kg, ip measured on day 14 (reference value: 100%); assay type: organism-based; settings: in vivo
Mus musculus [10] = test: Toxicity in Balb/c nude mouse xenografted with human A2780 cells assessed as abnormality in kidney at 7.5 mg/kg, ip once in every 2 days measured after 14 days by H and E staining based assay; assay type: organism-based; settings: in vivo, 336 h
HeLa [11] = test: Cell cycle arrest in human HeLa cells assessed as accumulation at G2/M-phase at 50 to 100 nM after 24 hrs by propidium iodide staining based flow cytometry; assay type: functional
[12] = Acute toxicity in ICR mouse assessed as survival rate at 35 mg/kg, ip measured on day 14 (reference value: 100%); assay type: organism-based; settings: in vivo
HeLa [13] = test: Induction of histone-H3 phosphorylation in human HeLa cells by Western blot analysis; assay type: cell-based
Sus scrofa = organism: Sus scrofa; test: Inhibition of pig brain tubulin polymerization measured every 1 min for 20 mins by spectrophotometric method
HeLa [14] = test: Upregulation of Bax protein expression in human HeLa cells after 48 hrs by Western blot analysis; assay type: functional, cell-based
Mus musculus [15] = test: Toxicity in Balb/c nude mouse xenografted with human A2780 cells assessed as body weight loss at 7.5 mg/kg, ip once in every 2 days measured up to 14 days; assay type: organism-based; settings: in vivo
HeLa [16] = test: Induction of apoptosis in human HeLa cells assessed as necrotic cells at 50 nM after 48 hrs by Annexin V-FITC/propidium iodide staining based flow cytometry (reference value: 0.9%); assay type: functional
[17] = Acute toxicity in ICR mouse assessed as survival rate at 25 mg/kg, ip measured on day 14 (reference value: 100%); assay type: organism-based; settings: in vivo
Mus musculus [18] = test: Toxicity in Balb/c nude mouse xenografted with human A2780 cells assessed as abnormality in liver at 7.5 mg/kg, ip once in every 2 days measured after 14 days by H and E staining based assay; assay type: organism-based; settings: in vivo, 336 h
[19] = Acute toxicity in ICR mouse assessed as survival rate at 50 mg/kg, ip measured on day 14 (reference value: 100%); assay type: organism-based; settings: in vivo
HeLa [20] = test: Induction of apoptosis in human HeLa cells assessed as necrotic cells at 200 nM after 48 hrs by Annexin V-FITC/propidium iodide staining based flow cytometry (reference value: 0.9%); assay type: functional
[21] = Growth inhibition of HOSEC at 1 uM after 48 hrs by MTT assay relative to control; settings: human, HOSEC cells; read-out: GI
HeLa [22] = test: Induction of apoptosis in human HeLa cells assessed as late apoptotic cells at 50 nM after 48 hrs by Annexin V-FITC/propidium iodide staining based flow cytometry (reference value: 2%); assay type: functional
Mus musculus [23] = test: Anti-vascular activity in Balb/c nude mouse assessed as inhibition of VEGF-induced capillary blood vessel formation using sc injected matrigel plug supplemented with 100 nM test compound mixed with VEGF and measured after 1 week by matrigel plug assay; assay type: functional, organism-based
HeLa [24] = test: Induction of apoptosis in human HeLa cells assessed as early apoptotic cells at 200 nM after 48 hrs by Annexin V-FITC/propidium iodide staining based flow cytometry (reference value: 0.7%); assay type: functional
HeLa [25] = test: Induction of apoptosis in human HeLa cells after 48 hrs by Annexin V-FITC/propidium iodide staining based flow cytometry; assay type: functional, cell-based
A2780 [26] = test: Antitumor activity against human A2780 cells xenografted in Balb/c nude mouse assessed as isolated tumor weight inhibition at 7.5 mg/kg, ip once in every 2 days measured after 14 days; assay type: functional, organism-based
Mus musculus [27] = test: Acute toxicity in ICR mouse assessed as death at 25 to 95 mg/kg, ip measured after 2 days; assay type: organism-based; settings: in vivo, 48 h
HeLa [28] = test: Induction of apoptosis in human HeLa cells assessed as early apoptotic cells at 50 nM after 48 hrs by Annexin V-FITC/propidium iodide staining based flow cytometry (reference value: 0.7%); assay type: functional
Homo sapiens [29] = organism: Homo sapiens; test: Disruption of microtubule structure in human SKOV3 cells assessed as decrease in density at 100 nM after 24 hrs by DAPI staining based immunofluorescence assay; assay type: cell-based
HeLa [30] = test: Upregulation of Cyclin-B1 protein expression in human HeLa cells at 50 to 200 nM by Western blot analysis; assay type: functional, cell-based
[31] = Acute toxicity in ICR mouse assessed as survival rate at 95 mg/kg, ip measured on day 14 (reference value: 100%); assay type: organism-based; settings: in vivo
Mus musculus [32] = test: Acute toxicity in ICR mouse assessed as death at 25 mg/kg, ip measured after 3 days; assay type: organism-based; settings: in vivo, 72 h
A2780 [33] = test: Antitumor activity against human A2780 cells xenografted in Balb/c nude mouse assessed as tumor weight inhibition at 7.5 mg/kg, ip once in every 2 days measured up to 14 days; assay type: functional, organism-based
Mus musculus [34] = test: Acute toxicity in ICR mouse assessed as death at 25 to 95 mg/kg, ip measured after 1 day; assay type: organism-based; settings: in vivo, 24 h
Mus musculus [35] = test: Acute toxicity in ICR mouse assessed as death at 25 to 50 mg/kg, ip measured after 4 days; assay type: organism-based; settings: in vivo, 96 h
HeLa [36] = test: Induction of apoptosis in human HeLa cells assessed as live cells at 200 nM after 48 hrs by Annexin V-FITC/propidium iodide staining based flow cytometry (reference value: 96.5%); assay type: functional
HUVEC = test: Antiangiogenic activity against HUVEC assessed as disruption of capillary-like tube formation at 25 to 50 nM after 12 hrs by inverted microscopic method; assay type: functional, cell-based; settings: Homo sapiens
Mus musculus [37] = test: Anti-vascular activity in Balb/c nude mouse assessed as inhibition of VEGF-induced capillary blood vessel formation by measuring reduction in hemoglobin level using sc injected matrigel plug supplemented with 100 nM test compound mixed with VEGF and measured after 1 week by matrigel plug assay; assay type: functional, organism-based
Mus musculus [38] = test: Acute toxicity in ICR mouse assessed as death at 25 to 50 mg/kg, ip measured after 5 to 14 days; assay type: organism-based; settings: in vivo
HeLa [39] = test: Induction of apoptosis in human HeLa cells assessed as live cells at 50 nM after 48 hrs by Annexin V-FITC/propidium iodide staining based flow cytometry (reference value: 96.5%); assay type: functional
MDA-MB-231 = test: Anticlonogenic activity against human MDA-MB-231 cells incubated for 48 hrs followed by replacement with fresh medium measured after 7 to 10 days by gentian violet staining based assay; assay type: functional, cell-based
HeLa [40] = test: Upregulation of p53 protein expression in human HeLa cells after 48 hrs by Western blot analysis; assay type: functional, cell-based
HeLa [41] = test: Upregulation of cleaved PARP1 protein expression in human HeLa cells after 48 hrs by Western blot analysis; assay type: functional, cell-based
[42] = target: Mitotic checkpoint serine/threonine-protein kinase BUB1 beta (Homo sapiens) (UniProt O60566); test: Induction of BubR1 hyperphosphorylation in human HeLa cells by Western blot analysis; assay type: cell-based
Mus musculus [43] = test: Toxicity in Balb/c nude mouse xenografted with human A2780 cells assessed as abnormality in spleen at 7.5 mg/kg, ip once in every 2 days measured after 14 days by H and E staining based assay; assay type: organism-based; settings: in vivo, 336 h
HeLa [44] = test: Induction of apoptosis in human HeLa cells assessed as late apoptotic cells at 200 nM after 48 hrs by Annexin V-FITC/propidium iodide staining based flow cytometry (reference value: 2%); assay type: functional
A2780 [45] = test: Antitumor activity against human A2780 cells xenografted in Balb/c nude mouse assessed as induction of tumor necrosis at 7.5 mg/kg, ip once in every 2 days measured after 14 days by H and E staining based assay; assay type: functional, organism-based

Chain of Mitotic checkpoint serine/threonine-protein kinase BUB1 beta (Homo sapiens) (O60566 whole entry): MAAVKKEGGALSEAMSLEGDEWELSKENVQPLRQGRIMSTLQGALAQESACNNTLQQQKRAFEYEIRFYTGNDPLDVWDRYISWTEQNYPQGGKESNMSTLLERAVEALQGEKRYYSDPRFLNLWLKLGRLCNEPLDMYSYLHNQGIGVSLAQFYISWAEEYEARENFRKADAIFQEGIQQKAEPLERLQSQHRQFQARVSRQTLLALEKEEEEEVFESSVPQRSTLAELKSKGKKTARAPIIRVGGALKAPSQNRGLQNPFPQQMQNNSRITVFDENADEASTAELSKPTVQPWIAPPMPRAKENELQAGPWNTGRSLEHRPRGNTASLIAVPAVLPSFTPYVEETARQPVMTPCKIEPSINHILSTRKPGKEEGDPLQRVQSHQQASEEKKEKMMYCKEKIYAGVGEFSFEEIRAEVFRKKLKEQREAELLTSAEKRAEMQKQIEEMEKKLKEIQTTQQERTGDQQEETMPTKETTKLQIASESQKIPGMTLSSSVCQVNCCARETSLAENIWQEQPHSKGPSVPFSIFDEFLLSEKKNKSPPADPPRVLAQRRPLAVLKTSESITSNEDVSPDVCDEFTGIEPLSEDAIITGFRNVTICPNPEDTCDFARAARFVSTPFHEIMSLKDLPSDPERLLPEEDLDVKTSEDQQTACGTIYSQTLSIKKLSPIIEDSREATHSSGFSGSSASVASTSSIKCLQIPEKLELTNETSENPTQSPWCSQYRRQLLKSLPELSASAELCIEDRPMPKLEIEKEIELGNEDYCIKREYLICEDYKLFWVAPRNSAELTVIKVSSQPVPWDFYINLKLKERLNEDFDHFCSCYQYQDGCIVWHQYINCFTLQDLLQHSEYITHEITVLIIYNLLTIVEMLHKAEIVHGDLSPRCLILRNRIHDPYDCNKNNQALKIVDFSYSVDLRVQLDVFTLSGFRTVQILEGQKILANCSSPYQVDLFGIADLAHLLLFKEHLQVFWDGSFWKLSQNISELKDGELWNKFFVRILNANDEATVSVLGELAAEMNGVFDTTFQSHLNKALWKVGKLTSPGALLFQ

With `COc1ccc(/C=C\c2cc(OC)c(OC)c(OC)c2)cc1O` [COMBRETASTATIN A4] the Activity (Homo sapiens [1]) was “Active”, the Activity (HeLa [2]) was 29.2% and the Activity (HeLa [3]) was 100%. For the same compound, the Activity (HeLa [4]) was 30%, the Activity (HeLa [5]) was 33.3% and the “tubulin polymerization inhibition (active/inactive)” value (HeLa [6]) was “Active”. For the same compound, the Activity (HeLa [7]) was 7.5%.

With `COc1ccc([C@H]2[C@H](CO)C(=O)N2c2cc(OC)c(OC)c(OC)c2)cc1O` the inhibition in vivo at 7.5 mg/kg (A2780 [8]) was 78.9%, the survival at 14 day [9] was 30% and the Activity (Mus musculus [10]) was “Non-Toxic”. For the same compound, the Activity (HeLa [11]) was “Active”, the survival at 14 day [12] was 90% and the Activity (HeLa [13]) was “Dose-dependent effect”. The Activity (HeLa [2]) was 24.6%, the inhibition (Sus scrofa) was “Dose-dependent effect” and the Activity (HeLa [14]) was “Dose-dependent effect”. For the same compound, the Activity (Mus musculus [15]) was “Non-Toxic”, the Activity (HeLa [16]) was 13% and the survival at 14 day [17] was 100%. For the same compound, the Activity (Mus musculus [18]) was “Non-Toxic”, the survival at 14 day [19] was 90% and the Activity (HeLa [20]) was 6.7%. For the same compound, the inhibition at 48 h, 1 µM [21] was under 50%, the Activity (HeLa [22]) was 20.1% and the inhibition (Mus musculus [23]) was “Active”. For the same compound, the Activity (HeLa [24]) was 36.1%, the Activity (HeLa [25]) was “Dose-dependent effect” and the inhibition (A2780 [26]) was “Active”. For the same compound, the Activity (Mus musculus [27]) was “Non-Toxic”, the Activity (HeLa [4]) was 36.3% and the Activity (HeLa [28]) was 18.6%. The Activity (Homo sapiens [29]) was “Active”, the Activity (HeLa [5]) was 32.9% and the Activity (HeLa [30]) was “Active”. For the same compound, the survival at 14 day [31] was 20%, the Activity (Mus musculus [32]) was “Non-Toxic” and the inhibition (A2780 [33]) was “Active”. The Activity (Mus musculus [34]) was “Non-Toxic”, the Activity (Mus musculus [35]) was “Non-Toxic” and the Activity (HeLa [36]) was 22.6%. The Activity (HUVEC) was “Active”, the inhibition (Mus musculus [37]) was “Active” and the Activity (Mus musculus [38]) was “Non-Toxic”. For the same compound, the Activity (HeLa [39]) was 48.2%, the Activity (MDA-MB-231) was “Dose-dependent effect” and the Activity (HeLa [40]) was “Dose-dependent effect”. The Activity (HeLa [41]) was “Dose-dependent effect”, the “tubulin polymerization inhibition (active/inactive)” value (HeLa [6]) was “Active” and the Activity [42] was “Dose-dependent effect”. For the same compound, the Activity (HeLa [7]) was 6.1%, the Activity (Mus musculus [43]) was “Non-Toxic” and the Activity (HeLa [44]) was 34.6%. The Activity (A2780 [45]) was “Active”.

Reference: ChEMBL document CHEMBL4251633, “Design, synthesis, biological evaluation and cocrystal structures with tubulin of chiral β-lactam bridged combretastatin A-4 analogues as potent antitumor agents” (Eur J Med Chem, 2018)
